{"source": "patent US20210106550A1", "about": "“COMPOSITIONS FOR PREVENTING OR TREATING COGNITIVE IMPAIRMENT-RELATED DISEASE COMPRISING MUMEFURAL” (KOREA INSTITUTE OF ORIENTAL MEDICINE, priority 2018, published 2021)", "key": {"AChE": {"tested_on": "AChE", "experiment": "enzyme-linked immunosorbent assay of AChE activity in basal forebrain", "assay_type": "in vivo", "conditions": "compared with the negative control; FIG. 6", "description": "(§1) Specifically, 12-week-old Wister rats (350 g to 380 g) were used for the experiments. After obtaining the experimental animals, appearance was visually inspected and then normal symptoms were observed during a 7-day acclimation period. Healthy animals were selected therefrom and assigned to groups by a random method according to body weight ranges, and then experiments were performed. During the acclimation and experiment, a constant breeding environment was maintained under the conditions of a temperature of 23±3° C., a relative humidity of 50±10%, a ventilation frequency of 12 times to 16 times per hour, a 12-hour light-dark cycle (light on at 7:00, light off at 19:00), and an intensity of illumination of 150 Lx to 300 Lx. Experiments were performed using sterilized instruments, and the rats were allowed free access to tap water and a solid feed (PMI nutrition, USA) for 24 hours.\n(§2) In order to construct a vascular dementia-mimic animal model, chronic cerebral hypoperfusion was induced by bilateral common carotid artery occlusion (2VO, hereinafter referred to as “brain damage (BCCA0)”) (Wakita et al., 1994). The rats were anesthetized with 4% isoflurane, and the anesthesia was maintained by 1.5% isoflurane during the operation. The central neck was incised to expose the bilateral common carotid artery carefully so as not to cause damage to the vagal nerve. […]"}, "[1]": {"tested_on": "ChAT, VAChT, and AChE proteins", "experiment": "western blot of ChAT, VAChT, and AChE proteins in hippocampus", "assay_type": "in vivo", "conditions": "compared with the negative control; FIGS. 7A, 7B", "description": "as §1\n(§3) In order to construct a vascular dementia-mimic animal model, chronic cerebral hypoperfusion was induced by bilateral common carotid artery occlusion (2VO, hereinafter referred to as “brain damage (BCCA0)”) (Wakita et al., 1994). The rats were anesthetized with 4% isoflurane, and the anesthesia was maintained by 1.5% isoflurane during the operation. The central neck was incised to expose the bilateral common carotid artery carefully so as not to cause damage to the vagal nerve. Ligation was performed twice with No. 3 silk, thereby constructing an animal model in which dementia was induced by brain damage.\n(§4) After 21 days from the BCCA0 operation, the Wistar rats were orally administered with mumefural for 42 days. The rats were divided into 5 groups listed in Table 1 below, and controls were orally administered with saline. Different concentrations of mumefural were set in the oral administration as low concentration (20 mg/kg), medium concentration (40 mg/kg), and high concentration (80 mg/kg)."}, "dementia-mimic rats": {"tested_on": "dementia-mimic rats", "experiment": "water maze test in dementia-mimic animal model", "assay_type": "in vivo, Wistar rats", "description": "as §1, §3, §4\nIn order to investigate effects of mumefural on enhancing spatial memory in the dementia-mimic animal model, a water maze test was performed after administering mumefural in the same manner as in Example 1 above.\nSpecifically, a circular water tank (diameter: 180 cm, height: 58 cm) was filled with water at a temperature of 26±2° C. up to 2 cm above a marked platform, screen walls were set up on all sides of the water tank to prevent light from coming through, and a pigment was added thereto to make the water opaque. In addition, labels were attached to given positions (diameter: 12 cm, height: 33.5 cm) of the screen walls to give clues for the rats to search for the marked platform. Spatial memory training was performed […] for 8 days every morning (from 9:00 a.m.) once per day 8 times in total. Time taken for the rats to find the hidden platform and escape latency thereof were measured and regarded as markers of memory, and reduced time of every group was compared every day. Thereafter, a water maze test was performed after 8 days from the training. In this test, time taken for the rats to first find the hidden platform was measured and used as a marker of memory. That is, a shorter time is regarded as more improved recognition ability."}, "MBP": {"tested_on": "MBP", "experiment": "western blot of MBP in hippocampus", "assay_type": "in vivo, Wistar rats", "conditions": "compared with the negative control, FIG. 10", "description": "as §1, §2"}, "[2]": {"tested_on": "myelin basic protein (MBP)", "experiment": "immunohistostaining of MBP protein (degraded myelin) in white matter and hippocampus", "assay_type": "in vivo, Wistar rats", "conditions": "compared with the negative control, FIGS. 9A, 9B", "description": "Specifically, 12-week-old Wister rats (350 g to 380 g) were used for the experiments. After obtaining the experimental animals, appearance was visually inspected and then normal symptoms were observed during a 7-day acclimation period. Healthy animals were selected therefrom and assigned to groups by a random method according to body weight ranges, and then experiments were performed. […]\nIn order to investigate the effects on normalization of degraded myelin in the dementia-mimic animal model, mumefural was administered in the same manner as in Example 1 above, and then degradation degrees of oligodendrocytes was analyzed in the hippocampus, fornix, medial septum, corpus callosum, and fimbria hippocampi.\nSpecifically, the brain was excised from each of the dementia-mimic rats after administration of mumefural was completed and sectioned into slices with a thickness of 40 μm. Subsequently, oligodendrocytes in the hippocampus, white matter fornix, medial septum, corpus callosum, and fimbria hippocampi were detected using myelin basic protein (MBP) that is expressed in the myelin sheath of axons by oligodendrocytes. The slices were stained by immunohistostaining using anti-MBP antibody as a primary antibody and horse anti-mouse antibody as a secondary antibody, and anti-MBP positive cell responses were detected."}, "IL-1β and IL-18": {"tested_on": "IL-1β and IL-18", "experiment": "enzyme immunoassay of inflammatory cytokines in hippocampus tissue", "assay_type": "in vivo, Wistar rats", "conditions": "compared with the negative control, FIG. 20", "description": "as §1, §2"}, "[3]": {"tested_on": "P2X7R, TLR4, MyD88, NLRP3, caspase1, IL-1β, IL-18, phospho-STAT3, and NF-κB (p65, p50) proteins", "experiment": "western blot of neurological inflammation proteins in hippocampus", "assay_type": "in vivo, Wistar rats", "description": "as §1, §3, §4\nIn order to investigate effects of mumefural on reduction of neurological inflammation in the dementia-mimic animal model, mumefural was administered in the same manner as in Example 1, and then expression levels of P2X purinoceptor 7 (P2X7R), toll-like receptor 4 (TLR4), myeloid differentiation primary response 88 (MyD88), nucleotide-binding oligomerization domain-like receptor protein 3 (NLRP3), caspase1, interleukin (IL)-1β, IL-18, phospho-signal transducer and activator of transcription 3 (phospho-STAT3), and NF-κB (p65, p50) proteins were measured in the hippocampus. Meanwhile, these proteins provoke inflammation of nerve cells, causing damage to the brain and resulting in diseases such as dementia.\nSpecifically, the hippocampus was excised from each of the dementia-mimic rats after administration of mumefural was completed, and proteins were extracted therefrom. Expression levels of the proteins were analyzed by western blotting. β-Actin and LaminB1 were used as loading controls."}, "[4]": {"tested_on": "ChAT, VAChT, and AChE proteins", "experiment": "western blot of ChAT, VAChT, and AChE proteins in basal forebrain", "assay_type": "in vivo", "conditions": "compared with the negative control; FIGS. 5A, 5B", "description": "as §1, §3, §4"}, "[5]": {"conditions": "western blot, compared to the negative control, FIGS. 17A, 17B"}}}
{"smiles": "O=Cc1ccc(COC(=O)CC(O)(CC(=O)O)C(=O)O)o1", "note": "(centres unmarked) [mumefural]", "values": [{"measurement": "activity of AChE in the basal forebrain", "setting": "AChE", "value": "reduced"}, {"measurement": "expression level of AChE protein in the hippocampus", "setting": "[1]", "value": "decreased"}, {"measurement": "expression level of ChAT protein in the hippocampus", "setting": "[1]", "value": "increased"}, {"measurement": "expression level of VAChT protein in the hippocampus", "setting": "[1]", "value": "increased"}, {"measurement": "latency to find the hidden platform vs normal control", "setting": "dementia-mimic rats; BCCAo rats, 20 mg/kg, 40 mg/kg, and 80 mg/kg oral, compared with normal control, FIG. 1", "value": "high latency similar to that of the normal control"}, {"measurement": "time to first arrive at the hidden platform vs normal control", "setting": "dementia-mimic rats; BCCAo rats, 40 mg/kg and 80 mg/kg oral, compared with normal control, FIG. 2", "value": "short time similar to that of the normal control"}, {"measurement": "time to first arrive at the hidden platform", "setting": "dementia-mimic rats; BCCAo rats, oral mumefural 42 days, compared to the negative control, FIG. 2", "value": "reduced"}, {"measurement": "latency to find the hidden platform (escape latency)", "setting": "dementia-mimic rats; BCCAo rats, oral mumefural 42 days, compared with the negative control (saline), FIG. 1", "value": "increased"}, {"measurement": "average swim speeds", "setting": "dementia-mimic rats; among the groups (20, 40, 80 mg/kg, controls), FIG. 3", "value": "no difference"}, {"measurement": "density of the MBP in the hippocampus", "setting": "MBP", "value": "increased"}, {"measurement": "myelin degradation (MBP immunohistostaining)", "setting": "[2]", "value": "decreased"}, {"measurement": "level of IL-1β in hippocampus tissue", "setting": "IL-1β and IL-18", "value": "significantly decreased"}, {"measurement": "level of IL-18 in hippocampus tissue", "setting": "IL-1β and IL-18", "value": "significantly decreased"}, {"measurement": "neurological inflammation protein expression, effect vs normal control", "setting": "[3]; 20 mg/kg, 40 mg/kg, and 80 mg/kg oral", "value": "effects similar to or superior to those of the normal control"}, {"measurement": "expression level of IL-1β protein in hippocampus", "setting": "[3]; [5]", "value": "decreased"}, {"measurement": "expression level of IL-18 protein in hippocampus", "setting": "[3]; [5]", "value": "decreased"}, {"measurement": "expression level of MyD88 protein in hippocampus", "setting": "[3]; [5]", "value": "decreased"}, {"measurement": "expression level of NLRP3 protein in hippocampus", "setting": "[3]; [5]", "value": "decreased"}, {"measurement": "expression level of P2X7R protein in hippocampus", "setting": "[3]; [5]", "value": "decreased"}, {"measurement": "expression level of TLR4 protein in hippocampus", "setting": "[3]; [5]", "value": "decreased"}, {"measurement": "expression level of caspase1 protein in hippocampus", "setting": "[3]; [5]", "value": "decreased"}, {"measurement": "expression level of phospho-STAT3 protein in hippocampus", "setting": "[3]; western blot, compared to the negative control, FIGS. 18A, 18B", "value": "decreased"}, {"measurement": "expression level of NF-κB (p65, p50) proteins in hippocampus", "setting": "[3]; western blot, compared to the negative control, FIGS. 19A, 19B", "value": "decreased"}, {"measurement": "expression level of AChE protein in the basal forebrain", "setting": "[4]", "value": "reduced"}, {"measurement": "expression level of ChAT protein in the basal forebrain", "setting": "[4]", "value": "increased"}, {"measurement": "expression level of VAChT protein in the basal forebrain", "setting": "[4]", "value": "increased"}]}
